Where “and” joins values, the source holds several entries; their conditions need not be identical. Equal entries are not always repeated.
How the values were obtained:
[1] = test system: subjects with paroxysmal atrial fibrillation who had implanted pacemakers; experiment: Proof of concept study of ATI-2042 in PAF patients with pacemakers: AF burden and AF episodes (Example 1); type: in vivo, human
Description: Epub 2009 Jan. 26). This study was a proof of concept design seeking preliminary information on the pharmacodynamic effects, safety, and tolerability of the investigational drug ATI-2042 at a variety of doses, in patients with PAF. Patients with advanced DDDRP pacemakers were selected because of the pacemaker's sophisticated diagnostics and the ability to record continuously and log asymptomatic as well as symptomatic episodes. Only post-menopausal or surgically sterile females with a significant PAF burden and pacemakers were included in this study. The pacemakers had to have been in situ for at least 1 month prior to the study and have appropriate arrhythmia diagnostics. In this study, Vitatron pacemakers, models Selection 9000 or T70 pacemakers, were used. […] Although this finding was explored further, it was prudent to commence clinical testing in a population not at risk for this effect. […] The patients underwent screening assessments to assess suitability for the study and to obtain a baseline medical history and examination. The value of this cohort was that the pacemaker was not inserted for bradycardia but for the treatment of AF using various prevention pacing and rate control techniques. The inclusion criteria were as follows: age 18-85 years; […] The initial ATI-2042 dosage for all subjects was 200 mg orally bid, and it was then increased by 200 mg bid for each subsequent study period. Patients received 200 mg bid of ATI-2042 during period 2, 400 mg bid during period 3, 600 mg bid during period 4 and 800 mg bid during period 5, and no drug was administered during baseline and washout periods. “Selection 9000” and “T70” pacemakers (Vitatron, […], The Netherlands) are dual-chamber pacemakers with sophisticated and similar algorithms for AF detection and prevention. Atrial fibrillation detection is based on atrial rate; atrial tachyarrhythmias are detected when the median atrial cycle length is less than that programmed for AT or AF detection. In all patients, atrial fibrillation was detected if the atrial rate was >200 bpm for six consecutive beats, and its end logged if the atrial rate dropped below 200 bpm for 10 beats. […] Pacemaker anti-arrhythmic algorithms were turned off prior to entry into the baseline period and remained turned off until after washout. […] The primary outcome measure, AFB, was defined as the duration of time the subject's cardiac rhythm was AF divided by the total time recorded for that study period, expressed as percent. The total duration of time that the rhythm was AF is a function of the number of PAF episodes and the duration of each episode. Therefore, a reduction in AFB can occur through reduction in either or both of these variables. Atrial fibrillation burden was compared with baseline during the treatment periods. Secondary outcome measures were the number of AF episodes, the safety of ATI-2042, and the incidence and severity of adverse events (AEs). […] Atrial fibrillation burden is given as the percentage of total storage duration. The sample size for this study was selected empirically. All patients who received any amount of study medication were included in the efficacy and safety analysis. Efficacy variables for the study group are described as mean and standard deviation for each study period. Due to the small number of subjects, comparisons of periods 2-6 with baseline were made using estimates from a mixed-effects regression model.

[2] = Metabolism and elimination features of budiodarone
[3] = Safety, ECG and thyroid function (Example 1); type: in vivo, human
Procedure: Patients were then monitored for at least 3 h continuously post-dose; this included telemetry, vital signs, and oxygen saturations. Electrocardiograms were taken, and the pacemaker data were downloaded prior to drug administration on day 8 and day 14 of each study period.
Criteria for drug discontinuation included a fall in systolic blood pressure (BP) to <90 mmHg systolic, an increase in BP>200 mmHg, intolerable side-effects, a change in rhythm that in the opinion of the investigator constituted a risk to safety, or a QRS increase >50%. Where possible, ECGs of intrinsic rhythm rather than ventricular-paced rhythm were obtained, as paced complexes can be difficult to interpret for QT prolongation. An increase in QT interval >470 ms for intrinsic and >550 ms for paced beats or an increase of 30% was considered significant.
Electrocardiogram parameters (ventricular HR, PR, QRS, QT, QTc interval) were summarized by baseline, dosing period, and washout using descriptive statistics. Changes from baseline in ECG values at day 8 of dosing and day 14 of washout were also summarized. Baseline values of ECG parameters are defined as the mean of three values recorded prior to the first dose of ATI-2042.

(S)-sec-butyl 2-(3-(4-(2-(diethylamino)ethoxy)-3,5-diiodobenzoyl)benzofuran-2-yl)acetate [ATI-2042]
mean AFB (SD) ([1]; 200 mg bid (p2), baseline 20.3+14.6%): 5.2+4.2% | mean AFB (SD) ([1]; 400 mg bid (p3)): 5.2+5.2% | mean AFB (SD) ([1]; 600 mg bid (p4)): 2.8+3.4% | mean AFB (SD) ([1]; 800 mg bid (p5)): 1.5 ± 0.5% | effect on AFB in refractory PAF patients ([1]; all doses): significantly effective in reducing AFB at all doses | decrease in AFB ([1]; all doses (200-800 mg bid)): at least 70% | number of AF episodes ([1]; on drug, remained elevated in washout): increased initially | relative reduction (RR) in AFB from baseline ([1]; p2, 200 mg bid): 71.2 ± 31.3% | mean episode duration (SD) ([1]; p2, 200 mg bid, baseline 4.8+5.2): 1.7+2.5 h | mean episode duration (SD) ([1]; p3, 400 mg bid): 0.6+0.7 h | relative reduction (RR) in AFB from baseline ([1]; p3, 400 mg bid): 71.7 ± 20.6% | mean episode duration (SD) ([1]; p4, 600 mg bid): 0.1+0.2 h | relative reduction (RR) in AFB from baseline ([1]; p4, 600 mg bid): 79.9 ± 26.4% | mean episode duration (SD) ([1]; p5, 800 mg bid): 0.5+0.7 h | relative reduction (RR) in AFB from baseline ([1]; p5, 800 mg bid): 86.8 ± 9.8% | mean episode duration (SD) ([1]; washout): 2.4+3.0 h | mean AFB (SD) ([1]; washout (p6), no drug): 11.7+14.0% | metabolism [2]: primarily metabolized by esterases | pharmacokinetic features [2]: short half-life, rapid onset and offset, small volume of distribution, and cytochrome P450-independent elimination | PR interval reduction from baseline ([3]; 200 mg bid): 16.6+23.9% | PR interval reduction from baseline ([3]; 400 mg bid): 11.4+22.6% | change in QTc from baseline, one patient ([3]; 400 mg bid, patient with AV node ablation, permanently paced): 30 to 60 ms | change in paced QTc from baseline, one patient ([3]; 400 mg bid, same patient): 15% | PR interval reduction from baseline ([3]; 600 mg bid): 27.0+32.1% | PR interval reduction from baseline ([3]; 800 mg bid): 35.1 ± 30.9% | tolerability ([3]; 200-800 mg bid): generally well tolerated | change from baseline QT or QTc with dosing ([3]; all patients, paced or not): No patient exhibited >30% change | changes in HR, QRS, QT, or QTc ([3]; between baseline and dosing or washout): no significant changes | proarrhythmia, clinical hypothyroidism, hyperthyroidism ([3]; in vivo): no cases of proarrhythmia, clinical hypothyroidism, or hyperthyroidism | serious AEs ([3]; in vivo): no serious AEs related to study drug | thyroid-stimulating hormone level reached after increase, individual patients ([3]; three patients, from 2.53, 3.51 and 0.68, normal range 0.27-4.2): 4.82 mU/L and 9.49 mU/L and 16.12 mU/L | PR interval reduction from baseline ([3]; washout): 30.7 ± 24.3%

Source: patent US9549912B2, “Methods for treating atrial fibrillation” (Armetheon, Inc., priority 2009, dated 2017)
